Here are results for one compound from PMC7264150 (Nature Communications, 2020).

The target in this experiment is T1, Pl-TcdA1 (Photorhabdus luminescens, UniProt Q9RN43).
T1 construct: gene tcdA
Format: binding.

As for `CC(=O)N[C@H]1C(O)O[C@H](CO)[C@@H](O[C@@H]2O[C@H](CO)[C@H](O)[C@H](O)[C@H]2O[C@@H]2O[C@@H](C)[C@@H](O)[C@@H](O)[C@@H]2O)[C@@H]1O[C@@H]1O[C@@H](C)[C@@H](O)[C@@H](O)[C@@H]1O` (stereo partly shown) [Lewis Y], the “glycan microarray, AlexaFluor488-labelled toxin” value is “tetrasaccharides Lewis Y and sialyl-Lewis X interacted strongly with Pl-TcdA1”.
